Results published in patent publication US20120184594A1, “PHENYLPYRROLIDINE COMPOUNDS” (Ferrer Internacional S.A., priority 2007, published 2012).

Columns and labels:
[1] = target: T1, recombinant human MT1 receptor (Homo sapiens, UniProt P48039); assay: Agonist activity on MT1 receptors (aequorin luminescence, Gα16 co-expressing cell line); type: cell-based; settings: percentage activity with respect to the reference agonist at its EC100; for MT1 agonism 1 nM: compound at 1 nM; for MT1 agonism 100 nM: compound at 100 nM, in %
T1 construct: expressed in transfected cells; host or cells: unnamed cell line co-expressing mitochondrial apoaequorin and the Gα16 subunit
Source text: Determination of the agonist activity on MT1 receptors
In order to screen compounds for the MT1 receptor a cell line is used that is characterised by stable overexpression of the recombinant human MT1 receptor in a cell line that in turn co-expresses mitochondrial apoaequorin and the Gα16 subunit.
The Gα16 subunit belongs to the G protein family, formed by GPCR, wherein the transduction of intracellular signals occurs via phospholipase (PLC). PLC activation produces an increase in inositol-triphosphate levels that leads to an increase in intracellular calcium. Gα16 overexpression thus allows an increase in intracellular calcium levels that is independent and compatible with the study receptor's own signal transduction pathway.
Following its binding to calcium, the aequorin oxidises coelenterazine to coelenteramide, a reaction that releases CO2 and light.
The trial protocol for the screening of possible agonists consists in collecting the cells and keeping them in suspension overnight in the presence of coelenterazine in order to reconstitute aequorin. On the following day the cells are injected on a plate where the compounds to be screened are diluted, and the luminescence released is read immediately. When wishing to study the possible antagonism of the same compounds, the reference agonist compound is added in the same well after 15-30 min from the first injection and the luminescence released is assessed.
Agonist activity is calculated as percentage activity with respect to the reference agonist at the concentration corresponding to its EC100. Antagonist activity is expressed as percentage inhibition over the reference agonist activity at the concentration corresponding to its EC80.

[2] = Metabolic stability by incubation in human microsomes; type: in vitro ADME; settings: disappearance of compound, 120 min, 1 μM
Source text: (§1) Moreover, the compounds of the present invention advantageously provide relevant pharmacokinetic improvements.

[3] = Rat plasma levels and brain/plasma ratio after administration; type: in vivo; settings: 15 min after administration of 1 mg/Kg; for concentration at 15 min: plasma
Source text: as §1

[4] = background statement; cited from earlier work

T1 sequence (P48039 whole entry): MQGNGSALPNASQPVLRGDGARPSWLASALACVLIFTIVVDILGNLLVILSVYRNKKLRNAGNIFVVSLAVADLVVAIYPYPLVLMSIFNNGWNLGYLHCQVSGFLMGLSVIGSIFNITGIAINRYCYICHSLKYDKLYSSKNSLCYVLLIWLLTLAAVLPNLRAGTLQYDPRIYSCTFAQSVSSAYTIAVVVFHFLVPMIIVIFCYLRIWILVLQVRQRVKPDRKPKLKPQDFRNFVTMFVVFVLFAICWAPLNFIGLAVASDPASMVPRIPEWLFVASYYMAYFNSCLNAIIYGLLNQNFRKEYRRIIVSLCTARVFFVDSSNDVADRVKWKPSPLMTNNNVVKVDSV

CCC(=O)N[C@H]1CCN(c2cccc(OC)c2)C1 [Example 3, (S)—N-[1-(3-methoxy-phenyl)-pyrrolidin-3-yl]-propionamide]
MT1 agonism 1 nM [1]: 46.7%
MT1 agonism 100 nM [1]: 109.9

CCC(=O)NCC[C@@H]1CCc2ccc(OC)cc21 [(1S)—N-[2-(6-methoxy-indan-1-yl)ethyl]-propionamide, reference compound]
metabolic stability [2]: less than 30%
concentration at 15 min [3]: 10.1 ng/mL

COc1ccc2[nH]cc(CCNC(C)=O)c2c1 [Melatonin, reference compound]
MT1 agonism 1 nM [1]: 51.8%
MT1 agonism 100 nM [1]: 100.5

COc1cccc(N2CC[C@H](NC(=O)CC(C)C)C2)c1 [Example 8, (S)—N-[1-(3-methoxy-phenyl)-pyrrolidin-3-yl]-3-methyl-butyramide]
MT1 agonism 1 nM [1]: 50.1%
MT1 agonism 100 nM [1]: 110.3
Kp at 0.25 h ([3]; brain/plasma): 1
concentration at 15 min [3]: 15.1 ng/mL

CCC(=O)NCC[C@@H]1CCc2ccc3c(c21)CCO3 [Ramelteon, N-[2-[(8S)-1,6,7,8-tetrahydro-2H-indeno[5,4-b]furan-8-yl)ethyl]propionamide, reference compound]
MT1 agonism 1 nM [1]: 50%
MT1 agonism 100 nM [1]: 117.5
clearance [4]: 88%

(S)-[1-(3-methoxy-phenyl)-pyrrolidin-3-yl]-butyramide [Example 7]
MT1 agonism 1 nM [1]: 33.4%
MT1 agonism 100 nM [1]: 99.6

COc1cccc(N2CC[C@H](NC(C)=O)C2)c1 [Example 4, (S)—N-[1-(3-methoxy-phenyl)-pyrrolidin-3-yl]-acetamide]
MT1 agonism 1 nM [1]: 34.4%
MT1 agonism 100 nM [1]: 102.7
